Format in all cases: biochemical
The target in one test is T1, JAK3 (Homo sapiens, UniProt P52333).
T1 construct: made in house; host or cells: SF9 insect cells (baculovirus)
Briefly: JAK3 inhibition (Table 4). Particulars: read-out: JAK3 Ki.

For the next test, the target named is T2, JAK1 (Homo sapiens, UniProt P23458).
T2 construct: made in house; host or cells: SF9 insect cells (baculovirus)
Briefly: JAK1 inhibition (Table 4). Conditions: read-out: JAK1 Ki.

The target of the next test is T3, JAK2 (Homo sapiens, UniProt O60674).
T3 construct: made in house; host or cells: SF9 insect cells (baculovirus)
Kind of test: JAK2 inhibition (Table 4). Conditions: read-out: JAK2 Ki.

The next test addresses T4, TYK2 (Homo sapiens, UniProt P29597).
T4 construct: made in house; host or cells: SF9 insect cells (baculovirus)
T4 sequence (P29597 873-1187): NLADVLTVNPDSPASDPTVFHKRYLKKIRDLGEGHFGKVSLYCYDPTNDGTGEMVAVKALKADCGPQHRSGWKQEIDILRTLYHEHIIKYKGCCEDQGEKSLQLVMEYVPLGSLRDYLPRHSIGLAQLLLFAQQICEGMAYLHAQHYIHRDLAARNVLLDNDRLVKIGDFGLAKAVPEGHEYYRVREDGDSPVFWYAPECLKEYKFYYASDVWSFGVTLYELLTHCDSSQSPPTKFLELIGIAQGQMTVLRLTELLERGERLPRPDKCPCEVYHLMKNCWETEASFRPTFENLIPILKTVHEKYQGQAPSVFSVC
Kind of test: TYK2 inhibition (Table 4).

T3 sequence (O60674 812-1132): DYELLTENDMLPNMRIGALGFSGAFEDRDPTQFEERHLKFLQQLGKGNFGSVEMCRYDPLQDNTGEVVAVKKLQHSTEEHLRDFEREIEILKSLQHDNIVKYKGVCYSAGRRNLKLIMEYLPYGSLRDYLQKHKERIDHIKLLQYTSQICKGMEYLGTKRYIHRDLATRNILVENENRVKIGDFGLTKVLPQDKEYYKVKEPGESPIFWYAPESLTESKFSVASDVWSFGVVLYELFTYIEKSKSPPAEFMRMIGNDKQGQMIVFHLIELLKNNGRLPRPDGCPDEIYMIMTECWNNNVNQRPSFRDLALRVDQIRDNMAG
T2 sequence (P23458 852-1154): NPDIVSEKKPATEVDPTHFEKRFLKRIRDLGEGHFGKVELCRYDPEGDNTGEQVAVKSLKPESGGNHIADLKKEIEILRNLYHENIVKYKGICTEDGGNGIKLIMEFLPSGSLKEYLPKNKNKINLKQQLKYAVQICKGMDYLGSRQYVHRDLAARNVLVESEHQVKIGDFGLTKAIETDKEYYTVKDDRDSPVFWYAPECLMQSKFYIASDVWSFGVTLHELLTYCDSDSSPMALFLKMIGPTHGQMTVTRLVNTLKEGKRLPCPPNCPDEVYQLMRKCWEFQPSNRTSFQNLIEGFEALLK
T1 sequence (P52333 783-1124): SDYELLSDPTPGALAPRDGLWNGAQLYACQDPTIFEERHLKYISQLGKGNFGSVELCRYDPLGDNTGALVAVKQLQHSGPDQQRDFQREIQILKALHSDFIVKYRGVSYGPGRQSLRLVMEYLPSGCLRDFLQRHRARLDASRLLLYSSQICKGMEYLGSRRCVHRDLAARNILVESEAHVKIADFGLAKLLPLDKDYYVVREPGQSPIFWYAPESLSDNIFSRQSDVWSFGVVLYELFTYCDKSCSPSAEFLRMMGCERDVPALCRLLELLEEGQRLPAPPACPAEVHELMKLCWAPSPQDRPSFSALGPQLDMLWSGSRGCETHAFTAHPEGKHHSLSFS

In the case of `COCC(=O)N1CCC(n2c(Cc3conc3C)nc3cnc4[nH]ccc4c32)CC1` [Example 119, 2-Methoxy-1-{4-[2-(3-methyl-isoxazol-4-ylmethyl)-6H-1,2,3,5,6-tetraaza-as-indacen-1-yl]-piperidin-1-yl}-ethanone], the inhibition constant Ki turned out to be 1160 nM on JAK3, 77.7 nM at JAK1, 1310 nM at JAK2 and 1030 nM on TYK2.

For `CCCc1nc2cnc3[nH]ccc3c2n1C1CCN(CCC#N)CC1` [Example 120, 3-[4-(2-Propyl-6H-1,2,3,5,6-tetraaza-as-indacen-1-yl)-piperidin-1-yl]-propionitrile], the inhibition constant Ki on JAK3 was 11.2 nM; at JAK1, 5.56 nM; at JAK2, 10.3 nM; at TYK2, 82.1 nM.

Turning to `Cc1nc2cnc3[nH]ccc3c2n1C1CC2CCC1C2` (stereo not shown) [Example 121, 1-Bicyclo[2.2.1]hept-2-yl-2-methyl-1,6-dihydro-1,2,3,5,6-tetraaza-as-indacene], the Ki was found to be 9.31 nM on JAK3, 1.01 nM on JAK1, 2.78 nM on JAK2 and 5.09 nM at TYK2.

As to `Cc1nc2cnc3[nH]ccc3c2n1C1CC2CCC1C2` (stereo not shown) [Example 121a, 1-Bicyclo[2.2.1]hept-2-yl-2-methyl-1,6-dihydro-1,2,3,5,6-tetraaza-as-indacene], the Ki at JAK3 came out at 7.35 nM; on JAK1, 0.32 nM; at JAK2, 1.8 nM; at TYK2 it was 2.35 nM.

For the compound `CCc1nc2cnc3[nH]ccc3c2n1C1CCN(C(C)CC#N)CC1` (stereo not shown) [Example 123, 3-[4-(2-Ethyl-6H-1,2,3,5,6-tetraaza-as-indacen-1-yl)-piperidin-1-yl]-butyronitrile], the Ki at JAK3 was determined as 23.6 nM; on JAK1, 3.55 nM; at JAK2 it was 7.14 nM; at TYK2, 31 nM.

Take `CC(C)(C)OC(=O)N1CCC(n2cnc3cnc4[nH]ccc4c32)CC1` [Example 124, 4-(6H-1,2,3,5,6-Tetraaza-as-indacen-1-yl)-piperidine-1-carboxylic acid tert-butyl ester]: the Ki turned out to be 845 nM on JAK3, 24.5 nM at JAK1, 33.2 nM on JAK2 and 225 nM at TYK2.

Regarding `CC(C)(C)OC(=O)N1CCC(C)(n2cnc3cnc4[nH]ccc4c32)CC1` [Example 132, 4-Methyl-4-(6H-1,2,3,5,6-tetraaza-as-indacen-1-yl)-piperidine-1-carboxylic acid tert-butyl ester], the Ki turned out to be 1120 nM at JAK3, 25.4 nM on JAK1, 193 nM at JAK2 and 696 nM at TYK2.

On to `O=C(N[C@H]1CC[C@H](n2cnc3cnc4[nH]ccc4c32)CC1)OCC1CC1` [Example 140, Trans[4-(6H-1,2,3,5,6-Tetraaza-as-indacen-1-yl)-cyclohexyl]-carbamic acid cyclopropylmethyl ester], for which the Ki on JAK3 worked out at 88.1 nM; on JAK1 it was 5.16 nM; on JAK2 it was 17.4 nM; at TYK2, 78.8 nM.

For `O=C(N[C@H]1CC[C@H](n2cnc3cnc4[nH]ccc4c32)CC1)OC1CCNCC1` [Example 141, Trans[4-(6H-1,2,3,5,6-Tetraaza-as-indacen-1-yl)-cyclohexyl]-carbamic acid piperidin-4-yl ester], the Ki on JAK3 came to 393 nM; on JAK1, 8.44 nM; on JAK2, 23.7 nM; at TYK2 it was 330 nM.

Regarding `CN([C@H]1CC[C@H](n2cnc3cnc4[nH]ccc4c32)CC1)S(C)(=O)=O` [Example 142, Trans N-Methyl-N-[4-(6H-1,2,3,5,6-tetraaza-as-indacen-1-yl)-cyclohexyl]-methanesulfonamide], the inhibitory constant (Ki) at JAK3 is 211 nM; on JAK1 it was 4.82 nM; at JAK2, 3.35 nM; at TYK2, 43.7 nM.

In the case of `CC(C)(C)OC(=O)N1CCC[C@H]1C(=O)N1CCC(n2cnc3cnc4[nH]ccc4c32)CC1` [Example 144, (S)-2-[4-(6H-1,2,3,5,6-Tetraaza-as-indacen-1-yl)-piperidine-1-carbonyl]-pyrrolidine-1-carboxylic acid tert-butyl ester], the Ki at JAK3 was 3520 nM; on JAK1, 251 nM; at JAK2 it was 382 nM; on TYK2, 3160 nM.

For the compound `N#CCN1CCC[C@H]1C(=O)N1CCC(n2cnc3cnc4[nH]ccc4c32)CC1` [Example 146, {(S)-2-[4-(6H-1,2,3,5,6-Tetraaza-as-indacen-1-yl)-piperidine-1-carbonyl]-pyrrolidin-1-yl}-acetonitrile], the inhibitory constant (Ki) at JAK3 stood at 2770 nM; on JAK1, 150 nM; on JAK2, 190 nM; at TYK2, 1730 nM.

`CC(C)(O)[C@H]1CC[C@H](n2cnc3cnc4[nH]ccc4c32)CC1` [Example 148, Trans 2-[4-(6H-1,2,3,5,6-Tetraaza-as-indacen-1-yl)-cyclohexyl]-propan-2-ol]: the inhibitory constant (Ki) on JAK3 is 23.8 nM; at JAK1, 1.73 nM; on JAK2, 1.92 nM; on TYK2, 12.3 nM.

As to `O=C1CCC2(CCC(n3cnc4cnc5[nH]ccc5c43)CC2)N1` (stereo not shown) [Example 152, 8-(6H-1,2,3,5,6-Tetraaza-as-indacen-1-yl)-1-aza-spiro[4.5]decan-2-one], the Ki came to 39.7 nM at JAK3, 3.14 nM on JAK1, 4.73 nM on JAK2 and 13.8 nM on TYK2.

On to `CNC(=O)c1nc2cnc3[nH]ccc3c2n1C1CCN(Cc2ccccc2)CC1` [Example 159, 1-(1-Benzyl-piperidin-4-yl)-1,6-dihydro-1,2,3,5,6-tetraaza-as-indacene-2-carboxylic acid methylamide], for which the Ki at JAK3 was 32.6 nM; at JAK1, 20.6 nM; at JAK2, 23.8 nM; on TYK2, 2330 nM.

For the compound `N#CCCN1CCC(n2c(CC(=O)N3CCOCC3)nc3cnc4[nH]ccc4c32)CC1` [Example 160, 3-{4-[2-(2-Morpholin-4-yl-2-oxo-ethyl)-6H-1,2,3,5,6-tetraaza-as-indacen-1-yl]-piperidin-1-yl}-propionitrile], the inhibition constant Ki worked out at 10.7 nM on JAK3, 8.43 nM at JAK1, 70.6 nM at JAK2 and 100 nM at TYK2.

As for `CC(C)(C)OC(=O)N1CC(c2nc3cnc4[nH]ccc4c3n2C2CCN(Cc3ccccc3)CC2)C1` [Example 161, 3-[1-(1-Benzyl-piperidin-4-yl)-1,6-dihydro-1,2,3,5,6-tetraaza-as-indacen-2-yl]azetidine-1-carboxylic acid tert-butyl ester], the Ki amounted to 20.5 nM on JAK3, 11.6 nM on JAK1, 31.8 nM at JAK2 and 386 nM at TYK2.

Regarding `c1ccc(CN2CCC(n3c(C4CNC4)nc4cnc5[nH]ccc5c43)CC2)cc1` [Example 162, 2-Azetidin-3-yl-1-(1-benzyl-piperidin-4-yl)-1,6-dihydro-1,2,3,5,6-tetraaza-as-indacene], the inhibitory constant (Ki) on JAK3 is 46.8 nM; at JAK1, 7.45 nM; at JAK2, 23.1 nM; at TYK2, 677 nM.

`N#Cc1nc2cnc3[nH]ccc3c2n1C1CCN(Cc2ccccc2)CC1` [Example 163, 1-(1-Benzyl-piperidin-4-yl)-1,6-dihydro-1,2,3,5,6-tetraaza-as-indacene-2-carbonitrile]: the inhibition constant Ki on JAK3 came to 28.1 nM; at JAK1 it was 11.2 nM; at JAK2, 10 nM; at TYK2, 607 nM.

Regarding `CC(C)NC(=O)[C@H]1CC[C@H](n2nnc3cnc4[nH]ccc4c32)CC1` [Example 165, Trans 4-(6H-1,2,3,5,6-Pentaaza-as-indacen-1-yl)-cyclohexanecarboxylic acid isopropylamide], the Ki on JAK3 is 802 nM; on JAK1 it was 48.9 nM; on JAK2, 177 nM; on TYK2 it was 550 nM.

For `O=C([C@H]1CC[C@H](n2cnc3cnc4[nH]ccc4c32)CC1)N1CCOCC1` [Example 166, Trans Morpholin-4-yl-[4-(6H-1,2,3,5,6-tetraaza-as-indacen-1-yl)-cyclohexyl]-methanone], the Ki was found to be 255 nM at JAK3, 145 nM on JAK1, 151 nM at JAK2 and 1020 nM at TYK2.

Take `FC(F)(F)c1nc2cnc3[nH]ccc3c2n1C1CCN(Cc2ccccc2)CC1` [Example 167, 1-(1-Benzyl-piperidin-4-yl)-2-trifluoromethyl-1,6-dihydro-1,2,3,5,6-tetraaza-as-indacene]: the Ki came out at 6.48 nM on JAK3, 10.4 nM at JAK1, 14.1 nM on JAK2 and 820 nM at TYK2.

Turning to `CC(C)c1nc2cnc3[nH]ccc3c2n1C1CCNCC1` [Example 168, 2-Isopropyl-1-piperidin-4-yl-1,6-dihydro-1,2,3,5,6-tetraaza-as-indacene], the inhibitory constant (Ki) at JAK3 turned out to be 330 nM; on JAK1, 25.3 nM; at JAK2, 312 nM; at TYK2, 1390 nM.

As to `N#Cc1nc2cnc3[nH]ccc3c2n1C1CCNCC1` [Example 170, 1-Piperidin-4-yl-1,6-dihydro-1,2,3,5,6-tetraaza-as-indacene-2-carbonitrile], the inhibition constant (Ki) at JAK3 turned out to be 1050 nM; at JAK1 it was 92.9 nM; on JAK2, 334 nM; at TYK2, 956 nM.

On to `OC(CN1CCC(n2cnc3cnc4[nH]ccc4c32)CC1)(C(F)(F)F)C(F)(F)F` [Example 174, 1,1,1,3,3,3-Hexafluoro-2-[4-(6H-1,2,3,5,6-tetraaza-as-indacen-1-yl)-piperidin-1-ylmethyl]-propan-2-ol], for which the inhibitory constant (Ki) on JAK3 turned out to be 87.4 nM; at JAK1, 1.58 nM; at JAK2 it was 2.66 nM; at TYK2, 7.53 nM.

The record behind these values is US8461328B2, “Tricyclic heterocyclic compounds, compositions and methods of use thereof” (Genentech, Inc., priority 2010, dated 2013).
